From patent publication US20230255202A1, “ANTIMICROBIAL COMPOSITION” (The Procter & Gamble Company, priority 2022, published 2023)

How the values were obtained:
Gram Negative = assay: Surface Antimicrobial Kill Testing Method, activity normalized to triclosan internal standard; assay type: cell-based; settings: for Referenced Microbial Activity: Table 15; for Referenced Microbial Activity / Negative Referenced Microbial Activity / Gram Negative Referenced Microbial Activity: 0.5 wt % compound; for Referenced Microbial Activity / Negative Referenced Microbial Activity: 0.1M Acetic acid buffer pH 4.5; for Negative Referenced Microbial Activity: Table 16; for antimicrobial benefit (in words): Table 16 nonionic formulation: DEGBE, EcoSurf EH9; for Gram Negative Referenced Microbial Activity: 5 wt % DPGME; for antimicrobial efficacy (in words): Table 17
Experimental: Inoculum is prepared by streaking microorganism onto a Tryptic Soy Agar (TSA) plate and incubating for 24 h at 33° C. Plated bacteria is resuspended in saline until the transmittance percentage falls within the accepted range for ˜10^8 cfu/mL. For K. pneumonia (Kp) and P. aeruginosa (Pa), this is 31.00-33.00% T. For S. aureus (Sa) this is 23.00-25.00% T. A 10× concentration is made by spinning down the prepared inoculum, removing the supernatant saline from the bacterial pellet, then resuspending the pellet in 1/10 of the original volume of saline. The final inoculum is prepared with 5% of “soil” in the form of Fetal Bovine Serum (FBS).
A 18×18 mm sterile glass coverslip is placed into an appropriate container (e.g. petri dish). 20 μL of prepared inoculum is added to the glass coverslip. Inoculum is then air-dried for 30 minutes in a 36° C. incubator. After drying, 40 μL of test sample is added on top of the dried inoculum. This is incubated at room temperature for the desired contact time. 5 mL of neutralizing media (Modified Letheen Broth+Tween+Lecithin (MLBTL)) is added to the coverslip and shaken on an orbital shaker for 5 minutes to ensure proper neutralization and extraction. Viability is then assessed of the neutralized and extracted sample by traditional/alternative microbiological techniques.
The normalized antimicrobial activity reported in the performance examples below was generated from detection time data obtained as described in the Surface Antimicrobial Kill Test Method. To account for day-to-day variability an internal standard was tested with each series. The internal standard was a composition of 0.25 wt % Triclosan, Sigma Aldrich (St. Louis, Mo., USA; CAS #3380-34-5, 97.0-103.0% (active substance, GC)), 50 wt % DMSO, and 49.75 wt % H2O, with a final solution pH of 7.7. Normalized activity is reported following the equation 1 below.
Normalized Activity=(αΔDT−βΔDT)/(γΔDT−βΔDT) equation 1.
where, αΔDT is the average detection time of the antimicrobial compound, and γΔDT is the average detection time of the reference triclosan internal standard, and βΔDT is the average detection time of the background unperturbed bacteria.
Modified amino acids of the present disclosure were tested as aqueous solutions in the Surface Antimicrobial Kill Testing Method above. To prepare test solutions modified amino acids were first dissolved in the appropriate solvent. Second the selected surfactant is added to the mixture. After vortex (1 min, Vortex-2 Genie, vortex speed 8) mixing, the samples were then diluted with […] of reverse osmosis water (RO water, Millipore Direct-Q™, pH 6). The aqueous solution was then vortexed (1 min, Vortex-2 Genie, vortex speed 8), to which the second ½ portion of water is added. The pH of the solution was then adjusted to the target pH using either 1N HCl, Glacial Acetic Acid, or 1N NaOH. The final solution was then vortexed (1 min, Vortex-2 Genie, vortex speed 8). An example batch sheet is provided below in Table 1.
In Performance Examples 1-4 below, formulations comprising solvent, surfactant, and antimicrobial agents according to the present disclosure (e.g., based on modified amino acid esters), are evaluated via microbial surface kill tests according to the Surface Antimicrobial Kill Testing Method provided above. After treatment, microbial growth is referenced and reported to a triclosan sample and unaltered microbes according to the Normalization of Antimicrobial Activity provided above.

[1] = Stability of the isolated modified amino acid ester by 1H NMR; assay type: physicochemical; settings: isolated solid or fluid
[2] = DEGBE (5 wt %), EcoSurf EH9 1 wt %

## CCOC(=O)C(N)C(C)C (stereo not shown) [Comparative Example C1, reference compound]
Gram Negative; [2]
  Referenced Microbial Activity: 0.5

## CCOC(=O)[C@@H](N)Cc1ccccc1 [Comparative Example C2, phenylalanine ethyl ester, reference compound]
Gram Negative; [2]
  Negative Referenced Microbial Activity: 0.4
Gram Negative
  antimicrobial benefit (in words): little antimicrobial benefit

## CCCCCCOC(=O)[C@@H](N)C(C)C [Synthetic Example 3]
Gram Negative; [2]
  Referenced Microbial Activity: 2.8
[1]
  stability by 1H NMR: stable for several months

## CCCCCCCCOC(=O)[C@@H](N)C(C)C [Synthetic Example 4]
Gram Negative; CTAC 1 wt %, pH 4.5
  Gram Negative Referenced Microbial Activity: 3.5
Gram Negative; Ecosurf EH6 1 wt %, pH 4.5
  Gram Negative Referenced Microbial Activity: 3.5
Gram Negative; Ecosurf EH6 1 wt %, pH 8.5
  Gram Negative Referenced Microbial Activity: 0.7
Gram Negative; Miranol Ultra 32 1 wt %, pH 4.5
  Gram Negative Referenced Microbial Activity: 3.5
Gram Negative; Plantaren 2000 1 wt %, pH 4.5
  Gram Negative Referenced Microbial Activity: 3.5
Gram Negative; SLS (29%) 1 wt %, pH 4.5
  Gram Negative Referenced Microbial Activity: 0.4
Gram Negative; SLS (29%) 1 wt %, pH 8.5
  Gram Negative Referenced Microbial Activity: 0.1
Gram Negative; Surfonic L 24-9 1 wt %, pH 2
  Gram Negative Referenced Microbial Activity: 2.5
Gram Negative; Surfonic L 24-9 1 wt %, pH 4.5
  Gram Negative Referenced Microbial Activity: 3.5
Gram Negative; Surfonic L24-9 1 wt %, pH 7
  Gram Negative Referenced Microbial Activity: 3.5
Gram Negative; Surfonic L24-9 1 wt %, pH 8.5
  Gram Negative Referenced Microbial Activity: 0.2
Gram Negative; Tween 80 1 wt %, pH 4.5
  Gram Negative Referenced Microbial Activity: 3.5
Gram Negative; no surfactant, pH 4.5, solution heated to 50 C. prior to testing
  Gram Negative Referenced Microbial Activity: 1.6
Gram Negative; DEGBE (5 wt %), EcoSurf EH6 1 wt %
  Referenced Microbial Activity: 3.7
Gram Negative; [2]
  Referenced Microbial Activity: 1.6
Gram Negative; Table 15 experiment, modified valine amino acids
  antimicrobial activity (in words): highest activity
Gram Negative; from pH 2 to about pH 7
  antimicrobial efficacy (in words): improved antimicrobial efficacy
Gram Negative; pH range greater than 7
  antimicrobial efficacy (in words): did not provide a benefit
[1]
  stability by 1H NMR: stable for several months

## CCCCCCCCCCCCCCCCOC(=O)[C@@H](N)C(C)C [Synthetic Example 6]
Gram Negative; [2]
  Referenced Microbial Activity: 0.6
[1]
  stability by 1H NMR: stable for several months

## CCCCCCCCCCCCCCCCCCOC(=O)[C@@H](N)C(C)C [Synthetic Example 7]
Gram Negative; [2]
  Referenced Microbial Activity: 0.9
Gram Negative; DMSO (50 wt %), EcoSurf EH6 1 wt %
  Referenced Microbial Activity: 0.6
[1]
  stability by 1H NMR: stable for several months

## N[C@@H](Cc1ccccc1)C(=O)OCc1ccccc1 [Synthetic Example 8]
Gram Negative; [2]
  Negative Referenced Microbial Activity: 4.6
[1]
  stability by 1H NMR: stable for several months

## CCCCCCCCCCCCOC(=O)[C@@H](N)Cc1ccccc1 [Synthetic Example 10]
Gram Negative; [2]
  Negative Referenced Microbial Activity: 0.1
Gram Negative
  antimicrobial benefit (in words): little surface activity
[1]
  stability by 1H NMR: stable for several months
